Results as given in paper PMC6934184, “Selective DNA-PKcs inhibition extends the therapeutic index of localized radiotherapy and chemotherapy” (The Journal of Clinical Investigation, 2019).

Target: T1, MARK3 (Homo sapiens, UniProt P27448)
T1 construct: purchased Thermo Fisher Scientific (Life Technologies) SelectScreen
Experiment: SelectScreen Z'LYTE
Format: biochemical
Outline: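 Percent values come from Thermo SelectScreen profiling of NU5455, combining activity and binding assays. CSF1R was run in Z'LYTE format at Km app ATP, and CAMK1 in Adapta format with ATP listed at 10.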

T1 sequence (P27448 whole entry): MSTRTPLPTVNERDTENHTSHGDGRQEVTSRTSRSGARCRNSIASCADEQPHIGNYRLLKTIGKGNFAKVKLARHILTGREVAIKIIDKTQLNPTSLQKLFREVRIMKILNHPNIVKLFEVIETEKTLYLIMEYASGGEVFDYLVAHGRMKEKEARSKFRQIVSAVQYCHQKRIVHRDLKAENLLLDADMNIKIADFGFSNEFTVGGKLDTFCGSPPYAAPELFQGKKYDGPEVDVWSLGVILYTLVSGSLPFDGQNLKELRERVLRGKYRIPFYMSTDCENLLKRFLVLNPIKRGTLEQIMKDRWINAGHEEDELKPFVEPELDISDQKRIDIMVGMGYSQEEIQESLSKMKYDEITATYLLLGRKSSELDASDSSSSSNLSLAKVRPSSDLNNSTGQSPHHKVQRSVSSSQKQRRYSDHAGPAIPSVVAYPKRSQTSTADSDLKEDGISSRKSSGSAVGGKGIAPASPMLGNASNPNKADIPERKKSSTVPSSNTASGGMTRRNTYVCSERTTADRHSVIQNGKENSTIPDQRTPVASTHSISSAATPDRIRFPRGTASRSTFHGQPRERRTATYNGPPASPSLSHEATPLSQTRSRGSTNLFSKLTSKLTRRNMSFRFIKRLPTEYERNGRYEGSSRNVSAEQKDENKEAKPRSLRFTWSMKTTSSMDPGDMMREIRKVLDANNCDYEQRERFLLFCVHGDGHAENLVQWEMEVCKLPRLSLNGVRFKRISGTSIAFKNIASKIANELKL

Which inhibition at 1 µM does the source give for CN(C(=O)CN1CCOCC1)c1ccc2sc3c(-c4cccc5c(=O)cc(N6CC7CCC(C6)O7)oc45)cccc3c2c1 [NU5455] here?
Its inhibition at 1 µM is 11.4%.
